Reference: patent US20250000881A1, “TREATMENT OF TREATMENT RESISTANT […] PSILOCYBIN” (COMPASS […], priority 2021, published 2025)

Test system: adult subjects with TRD
Assay: Phase 2b trial in TRD: safety, treatment emergent adverse events
Type: in vivo, human
From the text: Another objective was to evaluate the safety and tolerability of psilocybin in subjects with TRD based on AEs, changes in vital signs, and suicidal ideation/behaviour (measured using the Columbia-Suicide Severity Rating Scale [C-SSRS]) score at all visits.
Throughout the course of the study, all adverse events (AEs) were monitored and recorded and included the AE's description, start and end date, seriousness, severity, action taken, and relationship to the treatment. If AEs occurred, the first concern was the safety of the study subjects.
An AE can therefore be any unfavorable and unintended sign (including an abnormal laboratory finding, for example), symptom, or disease temporally associated with the use of a medicinal product, whether considered related to the medicinal product.
AEs were coded by Preferred Term (PT) using the Medical Dictionary for Regulatory Activities (MedDRA) classification. All reported AEs with onset or worsening after the administration of study medication were included in the analysis. The incidence of AEs was summarized by treatment group, and by severity and relationship to psilocybin. Serious AEs and AEs leading to withdrawal from the study will be tabulated.
A TEAE is defined as any AE that has an onset on or after the dose of psilocybin, or any pre-existing condition that has worsened on or after the dose of psilocybin.
The incidence of TEAEs and treatment-related AEs were summarized by maximum severity and most-related relationship to psilocybin by MedDRA primary system organ class and PT. The summary included the total number and percentage of subjects reporting an event.

## CN(C)CCc1c[nH]c2cccc(OP(=O)(O)O)c12 [COMP360, psilocybin]
1 mg (N = 79)
  Any TESAE, participants: 1 (1.3) n (%)
  TEAE Abdominal pain upper, participants: 1 (1.3) n (%)
  TEAE Anxiety, participants: 3 (3.8) n (%)
  TEAE Back pain, participants: 3 (3.8) n (%)
  TEAE Depressed mood, participants: 4 (5.1) n (%)
  TEAE Depression, participants: 5 (6.3) n (%)
  TEAE Dizziness, participants: 1 (1.3) n (%)
  TEAE Euphoric mood, participants: 4 (5.1) n (%)
  TEAE Fatigue, participants: 7 (8.9) n (%)
  TEAE Headache, participants: 20 (25.3) n (%)
  TEAE Insomnia, participants: 14 (17.7) n (%)
  TEAE Irritability, participants: 1 (1.3) n (%)
  TEAE Mood altered, participants: 1 (1.3) n (%)
  TEAE Myalgia, participants: 1 (1.3) n (%)
  TEAE Nausea, participants: 4 (5.1) n (%)
  TEAE Panic reaction, participants: 1 (1.3) n (%)
  TEAE Paraesthesia, participants: 1 (1.3) n (%)
  TEAE Suicidal ideation, participants: 4 (5.1) n (%)
  TEAE Thinking abnormal, participants: 0 n (%)
  TESAE Adjustment disorder with anxiety, participants: 0 n (%)
  TESAE Adjustment disorder with mixed anxiety and depressed mood, participants: 0 n (%)
  TESAE Depression, participants: 0 n (%)
  TESAE Drug withdrawal syndrome*, participants: 0 n (%)
  TESAE Hospitalisation, participants: 0 n (%)
  TESAE Intentional self-injury, participants: 1 (1.3) n (%)
  TESAE Suicidal behaviour, participants: 0 n (%)
  TESAE Suicidal ideation, participants: 0 n (%)
1 mg group
  Patients with TEAEs of suicidal ideation, suicidal behaviour and intentional self-injury: four
  Patients with TESAEs of suicidal ideation, suicidal behaviour and intentional self-injury: one
10 mg (N = 75)
  Any TESAE, participants: 6 (8.0) n (%)
  TEAE Abdominal pain upper, participants: 2 (2.7) n (%)
  TEAE Anxiety, participants: 13 (17.3) n (%)
  TEAE Back pain, participants: 0 n (%)
  TEAE Depressed mood, participants: 5 (6.7) n (%)
  TEAE Depression, participants: 6 (8.0) n (%)
  TEAE Dizziness, participants: 1 (1.3) n (%)
  TEAE Euphoric mood, participants: 5 (6.7) n (%)
  TEAE Fatigue, participants: 5 (6.7) n (%)
  TEAE Headache, participants: 16 (21.3) n (%)
  TEAE Insomnia, participants: 11 (14.7) n (%)
  TEAE Irritability, participants: 2 (2.7) n (%)
  TEAE Mood altered, participants: 3 (4.0) n (%)
  TEAE Myalgia, participants: 2 (2.7) n (%)
  TEAE Nausea, participants: 7 (9.3) n (%)
  TEAE Panic reaction, participants: 1 (1.3) n (%)
  TEAE Paraesthesia, participants: 4 (5.3) n (%)
  TEAE Suicidal ideation, participants: 5 (6.7) n (%)
  TEAE Thinking abnormal, participants: 4 (5.3) n (%)
  TESAE Adjustment disorder with anxiety, participants: 0 n (%)
  TESAE Adjustment disorder with mixed anxiety and depressed mood, participants: 0 n (%)
  TESAE Depression, participants: 1 (1.3) n (%)
  TESAE Drug withdrawal syndrome*, participants: 0 n (%)
  TESAE Hospitalisation, participants: 1 (1.3) n (%)
  TESAE Intentional self-injury, participants: 2 (2.7) n (%)
  TESAE Suicidal behaviour, participants: 0 n (%)
  TESAE Suicidal ideation, participants: 2 (2.7) n (%)
10 mg group
  Patients with TEAEs of suicidal ideation, suicidal behaviour and intentional self-injury: six
  Patients with TESAEs of suicidal ideation, suicidal behaviour and intentional self-injury: four
25 mg (N = 79)
  Any TESAE, participants: 5 (6.3) n (%)
  TEAE Abdominal pain upper, participants: 4 (5.1) n (%)
  TEAE Anxiety, participants: 7 (8.9) n (%)
  TEAE Back pain, participants: 6 (7.6) n (%)
  TEAE Depressed mood, participants: 3 (3.8) n (%)
  TEAE Depression, participants: 4 (5.1) n (%)
  TEAE Dizziness, participants: 6 (7.6) n (%)
  TEAE Euphoric mood, participants: 4 (5.1) n (%)
  TEAE Fatigue, participants: 12 (15.2) n (%)
  TEAE Headache, participants: 27 (34.2) n (%)
  TEAE Insomnia, participants: 8 (10.1) n (%)
  TEAE Irritability, participants: 4 (5.1) n (%)
  TEAE Mood altered, participants: 7 (8.9) n (%)
  TEAE Myalgia, participants: 5 (6.3) n (%)
  TEAE Nausea, participants: 18 (22.8) n (%)
  TEAE Panic reaction, participants: 4 (5.1) n (%)
  TEAE Paraesthesia, participants: 3 (3.8) n (%)
  TEAE Suicidal ideation, participants: 5 (6.3) n (%)
  TEAE Thinking abnormal, participants: 0 n (%)
  TESAE Adjustment disorder with anxiety, participants: 1 (1.3) n (%)
  TESAE Adjustment disorder with mixed anxiety and depressed mood, participants: 1 (1.3) n (%)
  TESAE Depression, participants: 0 n (%)
  TESAE Drug withdrawal syndrome*, participants: 1 (1.3) n (%)
  TESAE Hospitalisation, participants: 0 n (%)
  TESAE Intentional self-injury, participants: 2 (2.5) n (%)
  TESAE Suicidal behaviour, participants: 3 (3.8) n (%)
  TESAE Suicidal ideation, participants: 2 (2.5) n (%)
25 mg group
  Patients with TEAEs of suicidal ideation, suicidal behaviour and intentional self-injury: seven
  Patients with TESAEs of suicidal ideation, suicidal behaviour and intentional self-injury: four
25 mg, 10 mg, 1 mg groups, blinded remote rater
  MADRS item 10 (suicidality) scores post-administration, comparison of groups: no difference between the three groups
Overall (N = 233)
  Any TESAE, participants: 12 (5.2) n (%)
  TEAE Abdominal pain upper, participants: 7 (3.0) n (%)
  TEAE Anxiety, participants: 23 (9.9) n (%)
  TEAE Back pain, participants: 9 (3.9) n (%)
  TEAE Depressed mood, participants: 12 (5.2) n (%)
  TEAE Depression, participants: 15 (6.4) n (%)
  TEAE Dizziness, participants: 8 (3.4) n (%)
  TEAE Euphoric mood, participants: 13 (5.6) n (%)
  TEAE Fatigue, participants: 24 (10.3) n (%)
  TEAE Headache, participants: 63 (27.0) n (%)
  TEAE Insomnia, participants: 33 (14.2) n (%)
  TEAE Irritability, participants: 7 (3.0) n (%)
  TEAE Mood altered, participants: 11 (4.7) n (%)
  TEAE Myalgia, participants: 8 (3.4) n (%)
  TEAE Nausea, participants: 29 (12.4) n (%)
  TEAE Panic reaction, participants: 6 (2.6) n (%)
  TEAE Paraesthesia, participants: 8 (3.4) n (%)
  TEAE Suicidal ideation, participants: 14 (6.0) n (%)
  TEAE Thinking abnormal, participants: 4 (1.7) n (%)
  TESAE Adjustment disorder with anxiety, participants: 1 (0.4) n (%)
  TESAE Adjustment disorder with mixed anxiety and depressed mood, participants: 1 (0.4) n (%)
  TESAE Depression, participants: 1 (0.4) n (%)
  TESAE Drug withdrawal syndrome*, participants: 1 (0.4) n (%)
  TESAE Hospitalisation, participants: 1 (0.4) n (%)
  TESAE Intentional self-injury, participants: 5 (2.1) n (%)
  TESAE Suicidal behaviour, participants: 3 (1.3) n (%)
  TESAE Suicidal ideation, participants: 4 (1.7) n (%)
All groups
  Patients with TEAEs of suicidal ideation, suicidal behaviour and intentional self-injury: 17 patients
  Patients with TESAEs of suicidal ideation, suicidal behaviour and intentional self-injury: nine
  TEAEs being mild or moderate in severity: more than 90%
  TEAEs occurring on the day of administration that resolved on the same day or the day after: 77.4%
  TEAEs of suicidal ideation, suicidal behaviour and intentional self-injury: 27 events
  TESAEs of suicidal ideation, suicidal behaviour and intentional self-injury: 14 events
  TESAEs of suicidality/self-injury that occurred at least one week after the session: 10 events out of 14
All groups (233 patients)
  Participants reported at least one TEAE: 179 participants
All patients reporting these events were non responders at event onset
  Timing of suicidal behaviours after the psilocybin therapy session: occurred at least one month after the psilocybin therapy session
Single dose 1, 10 or 25 mg
  Tolerability: generally well tolerated
Started on the day of administration
  TEAEs involving hallucination (25 mg and 10 mg groups only) and illusion (all groups): onset and resolution: resolved on the same day
